Tests used:
HT-29 = assay: Cytotoxicity against human HT-29 cells assessed as decrease in cell viability incubated for 48 hrs by SRB assay; type: functional, cell-based; conditions: HT-29, 48 h
SW480 = assay: Cytotoxicity against human SW480 cells assessed as decrease in cell viability incubated for 48 hrs by SRB assay; type: functional, cell-based; conditions: SW480, 48 h
SW-620 = assay: Cytotoxicity against human SW620 cells assessed as decrease in cell viability incubated for 48 hrs by SRB assay; type: functional, cell-based; conditions: SW-620, 48 h
HCT-116 = assay: Cytotoxicity against human HCT-116 cells assessed as decrease in cell viability incubated for 48 hrs by SRB assay; type: functional, cell-based; conditions: HCT-116, 48 h
RKO = assay: Cytotoxicity against human RKO cells assessed as decrease in cell viability incubated for 48 hrs by SRB assay; type: functional, cell-based
HCT-15 = assay: Cytotoxicity against human HCT-15 cells assessed as decrease in cell viability incubated for 48 hrs by SRB assay; type: functional, cell-based; conditions: HCT-15, 48 h
[1] = Half life in ip dosed mouse; type: ADME, organism-based; conditions: in vivo

## O=c1[nH]cc(F)c(=O)[nH]1 [FLUOROURACIL]
HT-29
  IC50: 12 µM
SW480
  IC50: 12 µM
SW-620
  IC50: 12 µM
HCT-116
  IC50: 12 µM
RKO
  IC50: 12 µM
HCT-15
  IC50: 12 µM
[1]
  half-life: 1.36 h

— ChEMBL document CHEMBL5390201, “The Natural Alkaloid (-)-N-Hydroxyapiosporamide Suppresses Colorectal Tumor Progression as an NF-κB Pathway Inhibitor by Targeting the TAK1-TRAF6 Complex” (J Nat Prod, 2023)
